We go through 19 compounds from patent US10913738B2 (BRISTOL-MYERS SQUIBB COMPANY, priority 2017, dated 2021).

Test [1] has as its system MLKL phosphorylation in HT29-L23 human colorectal adenocarcinoma cells. The experiment in a line: MLKL Phosphorylation High-Content Assay. It counts as cell-based. On the procedure: MLKL Phosphorylation High-Content Assay
Following six hours incubation at 37° C. […] MLKL phosporylation was detected using anti-MLKL (phospho S358) antibody (Abcam #ab187091) (1:1000 dilution in Blocking Buffer [PBS supplemented with 0.1% BSA]) with overnight incubation at 4° C. […] Following another three cycles of washes in PBS, the microplates were sealed, and cellular images were acquired in the Cellomics ArrayScan VTI high-content imager equipped with an X1 camera. […] The image sets were analyzed using the Compartmental Analysis Bioapplication software (Cellomics). The level of MLKL phosphorylation was quantified as MEAN CircRingAvgIntenRatio. […] The data were fitted using the 4-parameter logistic equation to calculate the IC50 and Ymax values.

The target of test [2] is T1, His-GST-TVMV-hRIPK1(1-324) (Homo sapiens, UniProt Q13546).
T1 construct: The coding region of human RIPK1(1-324) flanked by NdeI site at 5′ end; made in house; host or cells: Spodoptera frugiperda (Sf9) insect cells, baculovirus
T1 sequence (Q13546 1-324): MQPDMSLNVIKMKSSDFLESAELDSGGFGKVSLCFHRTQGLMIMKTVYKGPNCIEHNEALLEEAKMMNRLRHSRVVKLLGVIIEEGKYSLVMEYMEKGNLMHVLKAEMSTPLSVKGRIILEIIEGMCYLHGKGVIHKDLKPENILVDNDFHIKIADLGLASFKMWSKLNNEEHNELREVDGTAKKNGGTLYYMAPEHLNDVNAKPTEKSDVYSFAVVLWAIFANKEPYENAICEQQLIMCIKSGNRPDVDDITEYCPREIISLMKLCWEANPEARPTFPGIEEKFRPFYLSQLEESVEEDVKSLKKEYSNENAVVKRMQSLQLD
The experiment in a line: RIPK1 HTRF Binding Assay. On the procedure: The plate was incubated at rt for 1 h.
Cloning and Baculovirus Expression of RIPK1 Construct
Baculovirus was generated for the construct using the Bac-to-Bac baculovirus expression system (Invitrogen) according to the manufacturer's protocol. Briefly, recombinant bacmid was isolated from transformed DH10Bac E. coli competent cells (Invitrogen) and used to transfect Spodoptera frugiperda (Sf9) insect cells (Invitrogen). Baculovirus was harvested 72 hours post transfection and a virus stock was prepared by infecting fresh Sf9 cells at a 1/1000 (v/v) ratio for 66 hours.
The production was carried out either at a 10 L scale in a 22 L cellbag (GE Healthcare Bioscience, Pittsburgh, Pa.) or at a 20 L scale in a 50 L cellbag using WAVE-Bioreactor System 20/50 (GE Healthcare Bioscience). The infected cells were harvested by centrifugation at 2000 rpm for 20 min at 4° C. in a SORVALL® RC12BP centrifuge. The cell pellets was stored at −70° C. before protein was purified.
RIPK1 containing cell paste was resuspended in 50 mM Tris pH 7.5, 150 mM NaCl, 10 mM imidazole, 5% glycerol, 5 mM MgSO4, 1 mM TCEP, 25 U/ml Benzonase, and Complete Protease Inhibitor tablets (1/50 ml, Roche Diagnostics, Indianapolis, Ind.). […] The suspension was clarified by centrifugation at 136,000×g for 40 min, at 4° C. The lysate was decanted from the pellet and passed through a 5 ml NiNTA Superflow cartridge (Qiagen, Valencia, Calif.) using an AKTA Pure (GE Healthcare). Column was eluted with 10 CV linear gradient into 50 mM Tris 7.5, 150 mM NaCl, 500 mM imidazole, 5% glycerol, 1 mM TCEP. Peak fractions were pooled and loaded directly onto 5 ml GSTrap 4B column (GE Healthcare). Column was washed with 50 mM Tris 7.0, 150 mM NaCl, 5% glycerol, 1 mM DTT and eluted in 10 CV linear gradient into 50 mM Tris 8.0, 150 mM NaCl, 20 mM reduced glutathione, 5% glycerol, 1 mM DTT. Fractions identified by SDS-PAGE as containing RIPK1 were pooled and concentrated using 30 kDa MWCO spin concentrators (Amicon Ultra-15, Millipore, Billerica, Mass.) and loaded onto a HiLoad 26/600 Superdex 200 column (GE Healthcare) equilibrated in 25 mM Tris 7.5, 150 mM NaCl, 2 mM TCEP, 5% glycerol.
Protein was aliquoted and stored at −80° C.
(TR-FRET usually uses a lanthanide donor and a delayed reading to cut background.)

Where [3] appears, read: Homo sapiens, x marks IC50 class 20-200 nM, read-out: pMLKL cell activity 20-200 nM.
Where [4] appears, read: x marks IC50 class <20 nM, read-out: RIPK1 HTRF binding <20 nM.
Setting [5] is: x marks IC50 class 20-200 nM, read-out: RIPK1 HTRF binding 20-200 nM.
Setting [6] is: Homo sapiens, x marks IC50 class <20 nM, read-out: pMLKL cell activity <20 nM.

Like-named read-outs stand apart in the source and are kept apart here. Where only a bound is given, the exact number is not on record here.

Consider `COc1nc(C)c(-c2ccn3nc(N)nc3c2)cc1C(=O)NCc1cc(C(F)(F)F)ccc1F` [Example 197, 5-{2-amino-[1,2,4]triazolo[1,5-a]pyridin-7-yl}-N-{[2-fluoro-5-(trifluoromethyl)phenyl]methyl}-2-methoxy-6-methylpyridine-3-carboxamide], for which the IC50 in test [1] (setting [3]) was 20 to 200 nM; in test [2] (setting [4]) it was below 20 nM. As for `[2H]C([2H])([2H])c1ncc(-c2ccn3nc(N)nc3c2)cc1C(=O)NCc1cc(OC(F)(F)F)ccc1F` [Example 96, 5-{2-amino-[1,2,4]triazolo[1,5-a]pyridin-7-yl}-N-{[2-fluoro-5-(trifluoromethoxy)phenyl]methyl}-2-(deutero)methylpyridine-3-carboxamide], the IC50 is 20 to 200 nM in test [1] (setting [3]) and below 20 nM in test [2] (setting [4]).

For `COc1nc(C)c(-c2ccn3nc(N)nc3c2)cc1C(=O)NCc1cccc(F)c1OC1C[C@@H](C)O[C@@H](C)C1` (stereo partly drawn) [Example 356, 5-(2-amino-[1,2,4]triazolo[1,5-a]pyridin-7-yl)-N-(2-(((2R,6S)-2,6-dimethyltetrahydro-2H-pyran-4-yl)oxy)-3-fluorobenzyl)-2-methoxy-6-methylnicotinamide], the IC50 in test [1] (Homo sapiens, x marks IC50 class >200 nM, read-out: pMLKL cell activity >200 nM) was above 200 nM; in test [2] (setting [5]), 20 to 200 nM; in test [2] (setting [4]) it was below 20 nM. Consider `COc1ncc(-c2ccn3nc(N)nc3c2)cc1C(=O)NCc1c(F)cc(F)cc1OCC1CCCC1` [Example 122, 5-{2-amino-[1,2,4]triazolo[1,5-a]pyridin-7-yl}-N-{[2-(cyclopentylmethoxy)-4,6-difluorophenyl]methyl}-2-methoxypyridine-3-carboxamide], for which the IC50 in test [1] (setting [3]) is 20 to 200 nM; in test [2] (setting [4]) it was below 20 nM. As for `[2H]C([2H])(NC(=O)c1cc(-c2ccn3nc(N)nc3c2)c(C)nc1OC)c1cc(C(F)(F)F)ccc1F` [Example 331, 5-(2-amino-[1,2,4]triazolo[1,5-a]pyridin-7-yl)-N-((2-fluoro-5-(trifluoromethyl)phenyl)methyl-d2)-2-methoxy-6-methylnicotinamide], the IC50 in test [1] (setting [3]) is 20 to 200 nM; in test [2] (setting [4]) it was below 20 nM. For `COc1nc(C)c(-c2ccn3nc(N)nc3c2)cc1C(=O)NCc1cccc(F)c1CN1CCOCC1` [Example 355, 5-(2-amino-[1,2,4]triazolo[1,5-a]pyridin-7-yl)-N-(3-fluoro-2-(morpholinomethyl)benzyl)-2-methoxy-6-methylnicotinamide], in that order: 20 to 200 nM and below 20 nM. Turning to `Cc1nc(C)c(-c2ccn3nc(N)nc3c2)cc1C(=O)NCc1cc(F)ccc1OCC1CCCC1` [Example 190, 5-{2-amino-[1,2,4]triazolo[1,5-a]pyridin-7-yl}-N-{[2-(cyclopentylmethoxy)-5-fluorophenyl]methyl}-2,6-dimethylpyridine-3-carboxamide], the IC50 in test [1] (setting [6]) and in test [2] (setting [4]) was below 20 nM each time.

With `Cc1nc(C)c(-c2ccn3nc(N)nc3c2)cc1C(=O)NCc1c(F)cccc1OCC1CCCC1` [Example 180, 5-12-amino-[1,2,4]triazolo[1,5-a]pyridin-7-yl}-N-{[2-(cyclopentylmethoxy)-6-fluorophenyllmethyl}-2,6-dimethylpyridine-3-carboxamide], the IC50 in test [1] (setting [3]) is 20 to 200 nM; in test [2] (setting [4]) it was below 20 nM. For `COc1nc(C)c(-c2ccn3nc(N)nc3c2)cc1C(=O)NCc1cccnc1OCC1CCC1` [Example 209, 5-{2-amino-[1,2,4]triazolo[1,5-a]pyridin-7-yl}-N-{[2-(cyclobutylmethoxy)pyridin-3-yl]methyl}-2-methoxy-6-methylpyridine-3-carboxamide], the IC50 in test [1] (setting [3]) is 20 to 200 nM; in test [2] (setting [4]) it was below 20 nM. On to `Cc1ncc(-c2ccn3nc(N)nc3c2)cc1C(=O)NCc1ncccc1OCC1CCCC1` [Example 12, 5-{2-amino-[1,2,4]triazolo[1,5-a]pyridin-7-yl}-N-{[3-(cyclopentylmethoxy)pyridin-2-yl]methyl}-2-methylpyridine-3-carboxamide], for which the IC50 in test [1] (setting [3]) was 20 to 200 nM; in test [2] (setting [4]), below 20 nM. Consider `Cc1ncc(-c2ccn3nc(N)nc3c2)cc1C(=O)NCc1c(OCC2CC2)ccc(F)c1F` [Example 304, 5-(2-amino-[1,2,4]triazolo[1,5-a]pyridin-7-yl)-N-(6-(cyclopropylmethoxy)-2,3-difluorobenzyl)-2-methylnicotinamide], for which the IC50 in test [1] (setting [3]) was 20 to 200 nM; in test [2] (setting [4]), below 20 nM. Turning to `COc1ncc(-c2ccn3nc(N)nc3c2)cc1C(=O)N(C)Cc1cccc(OC(F)(F)F)c1` [Example 162, 5-{2-amino-[1,2,4]triazolo[1,5-a]pyridin-7-yl}-2-methoxy-N-methyl-N-{[3-(trifluoromethoxy)phenyl]methyl}pyridine-3-carboxamide], the IC50 was 20 to 200 nM in test [1] (setting [3]) and below 20 nM in test [2] (setting [4]).

Consider `CCOc1ncc(-c2ccn3nc(N)nc3c2)cc1C(=O)NCc1ccccc1OCC1CCC1` [Example 268, 5-{2-amino-[1,2,4]triazolo[1,5-a]pyridin-7-yl}-N-{[2-(cyclobutylmethoxy)phenyl]methyl}-2-ethoxypyridine-3-carboxamide], for which the IC50 in test [1] (setting [3]) was 20 to 200 nM; in test [2] (setting [4]) it was below 20 nM. As to `COc1ncc(-c2ccn3nc(N)nc3c2)cc1C(=O)N1CCCC(Sc2ccccc2)C1` (stereo not shown) [Example 424, (5-(2-amino-[1,2,4]triazolo[1,5-a]pyridin-7-yl)-2-methoxypyridin-3-yl)(3-(phenylthio)piperidin-1-yl)methanone], the IC50 in test [1] (setting [3]) and in test [2] (setting [5]) was 20 to 200 nM throughout. As to `Cc1ncc(-c2ccn3nc(N)nc3c2)cc1C(=O)Nc1cn(Cc2ccccc2)cn1` [Example 319, 5-(2-amino-[1,2,4]triazolo[1,5-a]pyridin-7-yl)-N-(1-benzyl-1H-imidazol-4-yl)-2-methylnicotinamide], the IC50 in test [1] (setting [3]) was in the range of 20 to 200 nM. For `COc1ncc(-c2ccc3nc(N)nn3c2)cc1NC(=O)Cc1cc(OC(F)(F)F)ccc1F` [Example 418, N-(5-(2-amino-[1,2,4]triazolo[1,5-a]pyridin-6-yl)-2-methoxypyridin-3-yl)-2-(2-fluoro-5-(trifluoromethoxy)phenyl)acetamide], in test [1] (setting [3]), the IC50 is 20 to 200 nM. On to `COc1ncc(-c2ccn3nc(N)nc3c2)cc1C(=O)NCCC(C)c1ccccc1` (stereo not shown) [Example 85, 5-{2-Amino-[1,2,4]triazolo[1,5-a]pyridin-7-yl}-2-methoxy-N-(3-phenylbutyl)pyridine-3-carboxamide], for which the IC50 in test [1] (setting [6]) is below 20 nM.

For the compound `COc1nc(C)c(-c2ccn3nc(N)nc3c2)cc1C(=O)NCc1cccc(F)c1C(=O)N1CCC(F)(F)C1` [Example 382, 5-(2-amino-[1,2,4]triazolo[1,5-a]pyridin-7-yl)-N-(2-(3,3-difluoropyrrolidine-1-carbonyl)-3-fluorobenzyl)-2-methoxy-6-methlnicotinamide], the IC50 in test [1] (x marks IC50 class <20 nM, read-out: pMLKL cell activity <20 nM) was below 20 nM. As for `COc1ncc(-c2ccn3nc(N)nc3c2)cc1C(=O)NCC(C)Cc1ccccc1` (stereo not shown) [Example 113, 5-{2-amino-[1,2,4]triazolo[1,5-a]pyridin-7-yl}-2-methoxy-N-(2-methyl-3-phenylpropyl)pyridine-3-carboxamide], the IC50 in test [1] (setting [6]) is below 20 nM.
